Measurements as given in ChEMBL document CHEMBL6153040, “Discovery of the salicylaldehyde-based compound DDO-02267 as a lysine-targeting covalent inhibitor of ALKBH5” (Eur J Med Chem, 2025).
pIC50, pKd: −log10 of the molar value. The source made the active and inactive calls. No cut-off for these calls is given here.

How the values were obtained:
[1] = molecular target: T1, RNA demethylase ALKBH5 (Homo sapiens, UniProt Q6P6C2); assay: Inhibition of ALKBH5 (66 to 292 residues) (unknown origin) extracted from Escherichia coli BL21 (DE3) cells using m6A ssDNA as substrate measured after 1 hrs by fluorescence polarization assay
Target sequence in this assay (Q6P6C2 whole entry, the tested form may be a part): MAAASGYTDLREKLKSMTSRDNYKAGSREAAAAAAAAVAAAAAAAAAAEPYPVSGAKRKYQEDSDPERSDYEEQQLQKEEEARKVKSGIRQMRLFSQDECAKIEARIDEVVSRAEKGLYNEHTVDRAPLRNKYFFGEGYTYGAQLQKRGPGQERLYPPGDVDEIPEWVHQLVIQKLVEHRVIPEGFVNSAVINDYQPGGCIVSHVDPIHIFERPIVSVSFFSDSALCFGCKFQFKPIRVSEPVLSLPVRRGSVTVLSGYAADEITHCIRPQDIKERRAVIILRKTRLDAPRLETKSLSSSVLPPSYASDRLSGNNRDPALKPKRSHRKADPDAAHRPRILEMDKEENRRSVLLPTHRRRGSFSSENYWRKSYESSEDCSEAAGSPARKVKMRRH

[2] = molecular target: T1, RNA demethylase ALKBH5; assay: Inhibition of ALKBH5 (66 to 292 residues) (unknown origin) extracted from Escherichia coli BL21 (DE3) cells using m6A ssDNA as substrate measured after 2 hrs by fluorescence polarization assay
Target sequence in this assay (Q6P6C2 whole entry, the tested form may be a part): as above

[3] = molecular target: T1, RNA demethylase ALKBH5; assay: Inhibition of ALKBH5 (66 to 292 residues) (unknown origin) extracted from Escherichia coli BL21 (DE3) cells using m6A ssDNA as substrate measured immediately by fluorescence polarization assay
Target sequence in this assay (Q6P6C2 whole entry, the tested form may be a part): as above

[4] = molecular target: T1, RNA demethylase ALKBH5; assay: Inhibition of ALKBH5 (66 to 292 residues) (unknown origin) extracted from Escherichia coli BL21 (DE3) cells using m6A ssDNA as substrate measured after 6 hrs by fluorescence polarization assay
Target sequence in this assay (Q6P6C2 whole entry, the tested form may be a part): as above

[5] = molecular target: T1, RNA demethylase ALKBH5; assay: Inhibition of ALKBH5 (66 to 292 residues) (unknown origin) demethylase activity extracted from Escherichia coli BL21 (DE3) cells at 200 uM preincubated for 3 hrs and measured after compound washout by small molecule dilution method
Target sequence in this assay (Q6P6C2 2-394 limits assumed): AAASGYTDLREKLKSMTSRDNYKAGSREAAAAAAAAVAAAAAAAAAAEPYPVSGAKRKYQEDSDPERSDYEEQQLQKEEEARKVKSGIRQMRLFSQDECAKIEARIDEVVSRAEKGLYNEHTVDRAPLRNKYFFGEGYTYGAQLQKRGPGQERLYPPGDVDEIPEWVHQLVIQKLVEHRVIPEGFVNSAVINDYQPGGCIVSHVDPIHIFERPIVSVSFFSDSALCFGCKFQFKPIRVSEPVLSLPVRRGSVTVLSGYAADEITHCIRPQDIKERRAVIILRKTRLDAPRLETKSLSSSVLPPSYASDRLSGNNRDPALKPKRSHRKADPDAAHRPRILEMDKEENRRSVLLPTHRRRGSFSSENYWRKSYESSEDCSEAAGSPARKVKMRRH

[6] = molecular target: T1, RNA demethylase ALKBH5; assay: Binding affinity to ALKBH5 (66 to 292 residues) (unknown origin) extracted from Escherichia coli BL21 (DE3) cells assessed as dissociation constant incubated for 1 hrs by MST analysis
Target sequence in this assay (Q6P6C2 whole entry, the tested form may be a part): as the sequence (Q6P6C2 whole entry, the tested form may be a part) above

[7] = molecular target: T1, RNA demethylase ALKBH5; assay: Binding affinity to ALKBH5 (66 to 292 residues) (unknown origin) extracted from Escherichia coli BL21 (DE3) cells assessed as dissociation constant incubated for 1.5 hrs by MST analysis
Target sequence in this assay (Q6P6C2 whole entry, the tested form may be a part): as above

[8] = molecular target: T1, RNA demethylase ALKBH5; assay: Binding affinity to ALKBH5 (66 to 292 residues) (unknown origin) extracted from Escherichia coli BL21 (DE3) cells assessed as dissociation constant incubated for 3 hrs by MST analysis
[9] = molecular target: T1, RNA demethylase ALKBH5; assay: Binding affinity to ALKBH5 (66 to 292 residues) (unknown origin) extracted from Escherichia coli BL21 (DE3) cells assessed as dissociation constant incubated for 4 hrs by MST analysis
[10] = molecular target: T1, RNA demethylase ALKBH5; assay: Binding affinity to ALKBH5 (66 to 292 residues) (unknown origin) extracted from Escherichia coli BL21 (DE3) cells assessed as dissociation constant incubated for 5 hrs by MST analysis
[11] = molecular target: T1, RNA demethylase ALKBH5; assay: Inhibition of ALKBH5 (66 to 292 residues) (unknown origin) extracted from Escherichia coli BL21 (DE3) cells using m6A ssDNA as substrate at 1.25 to 10 uM incubated for 2 hrs in presence of 2-OG by TBE-PAGE based restriction enzyme digestion assay; conditions: dose 1.25-10 µM
Target sequence in this assay (Q6P6C2 2-394 limits assumed): as the sequence (Q6P6C2 2-394 limits assumed) above

[12] = molecular target: T1, RNA demethylase ALKBH5; assay: Inhibition of ALKBH5 (66 to 292 residues) (unknown origin) extracted from Escherichia coli BL21 (DE3) cells using m6A ssDNA as substrate incubated for 2 hrs by TBE-PAGE based restriction enzyme digestion assay
Target sequence in this assay (Q6P6C2 2-394 limits assumed): as above

SMILES | pIC50 [1] | pIC50 [2] | pIC50 [3] | pIC50 [4] | further results
CC(=O)c1cc(S(=O)(=O)NC(=O)c2cc(C(=O)O)ccn2)c2ccccc2c1O | 5.24 | 5.26 | 5.07 |  | 
O=C(O)c1ccnc(C(=O)NS(=O)(=O)c2ccccc2-c2ccccc2)c1 |  |  |  | 4.09 | 
O=C(O)c1ccnc(C(=O)NS(=O)(=O)c2ccccc2C(F)(F)F)c1 |  |  |  | < 3.70 | 
COc1ccc(S(=O)(=O)NC(=O)c2cc(C(=O)O)ccn2)cc1 |  |  |  | 4.72 | 
N#Cc1ccc(S(=O)(=O)NC(=O)c2cc(C(=O)O)ccn2)cc1 |  |  |  | 4.40 | 
N#Cc1ccccc1S(=O)(=O)NC(=O)c1cc(C(=O)O)ccn1 |  |  |  | < 3.70 | 
C=CC(=O)Nc1ccccc1S(=O)(=O)NC(=O)c1cc(C(=O)O)ccn1 | 4.67 | 4.72 | 4.67 |  | 
O=C(O)c1ccnc(C(=O)NS(=O)(=O)c2ccccc2)c1 | 4.28 | 4.28 | 4.19 | 4.25 | 
COc1ccccc1S(=O)(=O)NC(=O)c1cc(C(=O)O)ccn1 |  |  |  | < 3.70 | 
N#Cc1cccc(S(=O)(=O)NC(=O)c2cc(C(=O)O)ccn2)c1 |  |  |  | < 3.70 | 
O=C(O)c1ccnc(C(=O)NS(=O)(=O)c2ccc(-c3ccccc3)cc2)c1 |  |  |  | 4.78 | 
O=C(OCc1ccc(C(F)(F)F)cc1)c1ccc(-c2cc3ncc(C(=O)c4c(O)ccc([N+](=O)[O-])c4O)cn3n2)cc1 |  |  |  | 5.39 | 
COC(=O)c1ccnc(C(=O)NS(=O)(=O)c2ccccc2[N+](=O)[O-])c1 |  |  |  | < 3.70 | 
C=CC(=O)Nc1cccc(S(=O)(=O)NC(=O)c2cc(C(=O)O)ccn2)c1 | 5.27 | 5.40 | 5.13 |  | 
O=C(O)c1cccc(C(=O)NS(=O)(=O)c2ccccc2[N+](=O)[O-])c1 |  |  |  | < 3.70 | 
O=C(CCl)Nc1ccccc1S(=O)(=O)NC(=O)c1cc(C(=O)O)ccn1 | 4.90 | 4.97 | 4.74 |  | 
O=C(O)c1ccnc(C(=O)NS(=O)(=O)c2ccc3ccccc3c2)c1 |  |  |  | 4.82 | 
CN(C(=O)c1cc(C(=O)O)ccn1)S(=O)(=O)c1ccccc1[N+](=O)[O-] |  |  |  | < 3.70 | 
O=C(O)c1ccnc(C(=O)NS(=O)(=O)c2cccc(-c3ccccc3)c2)c1 |  |  |  | 4.82 | 
O=C(O)c1ccnc(C(=O)NS(=O)(=O)c2cccc3ccccc23)c1 |  |  |  | 4.90 | inhibition [5]: inactive; pKd [6]: 4.23; pKd [7]: 4.28; pKd [8]: 4.19; pKd [9]: 4.38; pKd [10]: 4.21; inhibition [11]: inactive; inhibition [12]: Active
CC(=O)c1cc(S(=O)(=O)NC(=O)c2cc(C(=O)O)ccn2)ccc1O | 5.19 | 5.36 | 4.83 |  | 
O=C(CCl)Nc1cccc(S(=O)(=O)NC(=O)c2cc(C(=O)O)ccn2)c1 | 4.83 | 4.98 | 4.51 |  | 
O=C(O)c1ccnc(C(=O)NCc2ccccc2[N+](=O)[O-])c1 |  |  |  | < 3.70 | 
O=Cc1cc(S(=O)(=O)NC(=O)c2cc(C(=O)O)ccn2)ccc1O | 6.26 | 6.35 | 5.47 |  | 
